Data: patent publication US12590130B2, “Bipartite molecules and uses thereof in treating diseases associated with abnormal protein aggregates” (ACADEMIA SINICA, priority 2014, dated 2026)

How the values were obtained:
[1] = Solubility of therapeutic peptides; format: physicochemical; details: DMEM/10% FBS
Experimental: In this study, the rational design was tested for HD. Several bipartite therapeutic peptides containing 8 consecutive arginines (8R) attached to a stretch of consecutive glutamines (polyQ) were synthesized and their biological activity of decreasing the aggregation propensity of the mHtt protein was investigated. The length of the polyQ of these bipartite peptides was 5 (8R5Q), 10 (8R10Q), 15 (8R15Q) or 20 (8R20Q) (Table 2).

109QmHtt aggregates = test: Co-localization of TAMRA-labeled peptide with 109QmHtt aggregates in Neuro2a cells; format: cell-based; details: Neuro2a cells expressing 109QmHtt
Sequence of 109QmHtt aggregates (P42858 with tags, fused parts or gaps limits assumed): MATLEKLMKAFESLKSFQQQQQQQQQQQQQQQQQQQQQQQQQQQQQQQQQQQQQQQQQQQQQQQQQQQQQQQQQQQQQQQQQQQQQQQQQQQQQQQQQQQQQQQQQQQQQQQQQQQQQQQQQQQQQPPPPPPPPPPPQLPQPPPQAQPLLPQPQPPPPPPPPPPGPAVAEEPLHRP
Experimental: FIG. 3. Diagrams showing the co-localization of tested bipartite peptides with the 109QmHtt aggregates. Panel A: Structure of TAMRA-labeled 8R10Q used in this study. Panel B: Epifluorescence micrographs of Neuro2a cells expressing 109QmHtt treated with TAMRA-8R10Q (8R10Q) at various time points. Note the co-localization of 8R10Q and 109QmHttGFP aggregates (GFP) from 8-24 hours (arrows). Scale bar: 10 μm. Panel C: TIRF micrographs of the Neuro2a expressing 109QmHtt treated with water or peptides as indicated at various time points. Note the decrease in aggregate size in 8R10Q and 8R15Q-treated cells. Panel D: Quantitation of the size of individual aggregates in Neuro2a at 8 hours (left) and 24 hours (right) after peptide treatment. […] Panel E: Quantitation of the number of aggregates in 20 Neuro2a cells at 12 hours (left) and 24 hours (right) after peptide treatment. Both the 8R10Q and 8R15Q increased the number of aggregates. Statistics performed with one way ANOVA. **p<0.01; ***p<0.001.
The ability of 8R10Q to bind to the 109QmHtt was examined by determining its co-localization with the 109QmHtt aggregates. The 8R10Q peptide was labeled with carboxytetramethylrhodamine (TAMRA) dye (FIG. 3, panel A), and added into Neuro2a cells expressing 25QHtt or 109QmHtt.

APP×PS1 transgenic mice [2] = test: Morris water maze in APP×PS1 transgenic mice; format: in vivo, mouse; details: vs PEI
Excerpt: FIG. 12. R8-Aβ(25-35)-PEI improved memory as measured by the Morris water maze assay. Panel A: Plot of the escape latency period of wild type (WT) and APP×PS1 transgenic (Tg) mice of 8 months of age treated with either PEI or R8-Aβ(25-35) peptide from the age of 4 months to 8 months. […] Panel B: Percentage of time of WT or Tg mice treated as indicated spent in swimming in the target quadrant where the hidden platform used to be. The times of the indicated mice crossing the target quadrant. […] Panel C: The percentage of time of the WT or Tg mice as indicated crossing the target quadrant. Ten mice per group were used in this study. The statistics were performed with two way ANOVA with Fisher's LSD posthoc analysis. N=10/group *<0.05; ***<0.0005; ****<0.0001
(§1) APP×PS1 transgenic mice (B6C3-Tg (APPswe,PSEN1dE9) 85Dbo/Mmjax, purchased from Jackson Laboratories (USA), were bred and genotyped following the vendor's protocols. Borchelt et al., Neuron (1996) 17:1005-13; and Jankowsky et al., Biomol Eng (2001) 17:157-65. The mice had access to food and water ad libitum and were kept on a 12:12 h light-dark cycle. PEI and R8A β 25-35-PEI were dissolved in 100 mM NaH2PO4/138 mM KCl (pH 5) to a final concentration of 400 μM. For intranasal administration, 2.5 μL PEI or R8-A β (25-35)-PEI was given to each nostril of one mouse when they were […] for six days/week until they were 8 months of age. Mice were then tested with a Morris water maze. Treatment were resumed after a 6-week break for the water maze test, and continued until the mice were 12 months of age.
The maze was made of white opaque plastic with a diameter of 120 cm and contained 40 cm high walls. It was filled with milk/water at 25° C. […] The path length and escape latencies were recorded (n=10 per group). Acquisition data, such as time taken to reach the escape platform and path length were analyzed by two-way repeated measures ANOVA. […] The platform was removed from the maze and animals were allowed to swim freely for 90 s and the swimming path was recorded and analyzed.

APP×PS1 transgenic mice [3] = test: Cytometric bead array for IL-6 and IL-1β in brain of APP×PS1 mice; format: in vivo, mouse; details: cortex, 8 month-old Tg mice
Experimental: as §1
A cytometric bead array (CBA, mouse inflammation kit; BD Biosciences) was used to quantitatively measure cytokine expression levels in the control and treated mouse brain tissue lysates. […] This method quantifies soluble particles, in this case, cytokines, using a fluorescence-based detection mechanism. The beads, coated with the desired cytokine, IL-6 and IL-1B, reacted with the test lysates and standards, to which fluorescence dyes were then added. The assay was performed according to the manufacturer's instructions and analyzed on the FACS Calibur (Becton Dickinson). […]

APP×PS1 transgenic mice [4] = test: Thioflavin S staining of amyloid plaques in APP×PS1 mice; format: in vivo, mouse; details: vs PEI

Substance	Solubility (DMEM/10% FBS) [1]	co-localization with 109QmHtt aggregates (109QmHtt aggregates)	escape latency / learning to find hidden platform (APP×PS1 transgenic mice [2]; Tg mice 8 months of age, intranasal)	time spent in the target quadrant (probe test) (APP×PS1 transgenic mice [2]; Tg mice)	learning curve of finding the hidden platform (APP×PS1 transgenic mice [2]; wild-type mice)	level of IL-1β (APP×PS1 transgenic mice [3])	level of IL-6 (APP×PS1 transgenic mice [3])	number of plaques (APP×PS1 transgenic mice [4]; cortex and hippocampus, 8 month-old)	percentage of the plaque areas (APP×PS1 transgenic mice [4]; cortex and hippocampus)	total area of amyloid plaques (APP×PS1 transgenic mice [4]; cortex and hippocampus)	average size of individual plaques (APP×PS1 transgenic mice [4])
TAMRA-NH-(R)8-W-D-(Q)10-CONH2 ({TAMRA}-RRRRRRRRWDQQQQQQQQQQ-NH2) [TAMRA-8R10Q]	Soluble	co-localized with the aggregates	–	–	–	–	–	–	–	–	–
RRRRRRRRGSNKGAIIGLM-PEI (not fully specified; PEI conjugate) [R8-Aβ(25-35)-PEI]	–	–	significant shortening of the latency	increased the time of Tg mice in the target quadrant	no clear difference in the learning curve	effectively decreased	effectively decreased	significantly reduced	significantly decreased	correspondingly decreased	failed to reach statistical significance
